We go through 31 compounds from ChEMBL document CHEMBL1128582, “Chiral dioxolane inhibitors of leukotriene biosynthesis: structure-activity relationships and syntheses using asymmetric dihydroxylation” (J Med Chem, 1995).

One may read the IC50 as the concentration at which inhibition is half-maximal. The low end stands for greater potency in that assay, the high end for weaker potency in that assay.

For the assay, the target named is T1, Polyunsaturated fatty acid 5-lipoxygenase (Homo sapiens, UniProt P09917).
T1 sequence (P09917 whole entry): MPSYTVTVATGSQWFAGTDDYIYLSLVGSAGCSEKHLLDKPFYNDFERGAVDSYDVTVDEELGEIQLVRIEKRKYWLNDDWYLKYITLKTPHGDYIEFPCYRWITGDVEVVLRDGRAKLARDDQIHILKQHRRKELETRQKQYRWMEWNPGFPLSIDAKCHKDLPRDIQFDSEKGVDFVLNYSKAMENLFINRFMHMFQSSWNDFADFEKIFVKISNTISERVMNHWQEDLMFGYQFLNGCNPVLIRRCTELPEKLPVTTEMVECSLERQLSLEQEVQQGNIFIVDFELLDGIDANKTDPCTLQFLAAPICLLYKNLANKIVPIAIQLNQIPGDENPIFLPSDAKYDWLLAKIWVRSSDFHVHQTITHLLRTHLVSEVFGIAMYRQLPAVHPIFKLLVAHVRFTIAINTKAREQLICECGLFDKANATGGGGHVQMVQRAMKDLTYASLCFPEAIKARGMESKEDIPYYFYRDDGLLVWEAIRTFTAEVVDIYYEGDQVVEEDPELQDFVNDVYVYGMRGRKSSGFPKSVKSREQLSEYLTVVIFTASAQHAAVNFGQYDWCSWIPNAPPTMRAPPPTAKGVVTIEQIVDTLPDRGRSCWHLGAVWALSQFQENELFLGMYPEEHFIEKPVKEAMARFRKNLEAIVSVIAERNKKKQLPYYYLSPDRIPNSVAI
Kind of assay: Inhibition of LT biosynthesis in vitro using A-23187-stimulated human whole blood. The class given is functional, tissue-based.
In the case of `CC(=O)N(C)c1ccc(Sc2cc([C@@]3(C)COC(C)(C)O3)cs2)cc1`, the IC50 is 40 nM.

As to `CC(=O)N(C)c1ccc(Sc2ncc([C@]3(C)COC(C)(C)O3)s2)cc1`, the IC50 stood at 6210 nM.

Regarding `C/C(=N\OCCN1CCOCC1)c1ccc(Sc2cc([C@@]3(C)COC(C)(C)O3)cs2)cc1`, the IC50 came out at 1510 nM.

`CC(=O)c1ccc(Sc2ncc([C@@]3(C)COC(C)(C)O3)s2)cc1` showed a half-inhibitory concentration (IC50) of 390 nM. For `C/C(=N\O)c1ccc(Sc2ncc([C@@]3(C)COC(C)(C)O3)s2)cc1`, the concentration for half-maximal inhibition (IC50) came to 130 nM.

Consider `CC(=O)c1ccc(Sc2cc(C3(C)COC(C)(C)O3)cs2)cc1` (stereo unspecified), for which inhibition was half-maximal at 600 nM (IC50). `COC1(c2cc(Sc3ccc(N(C)C(C)=O)cc3)cc(F)c2C)CCOCC1` yielded a half-inhibitory concentration (IC50) of 30 nM. In the case of `CC(=O)N(C)c1ccc(Sc2cc([C@]3(C)COC(C)(C)O3)cs2)cc1`, the IC50 amounted to 1180 nM. To `CC(=O)N(C)c1ccc(Sc2cc(C3(C)COC(C)(C)O3)cs2)cc1` (stereo unspecified) belongs 150 nM; to `COC1(c2cc(Sc3ccc4c(c3)CCC(=O)N4C)cc(F)c2C)CCOCC1`, 60 nM.

Compound `CO/N=C(\C)c1ccc(Sc2cc(C3(C)COC(C)(C)O3)cs2)cc1` (stereo unspecified) gave an IC50 of 270 nM. Consider `C/C(=N\OCC#N)c1ccc(S(=O)(=O)c2cc([C@@]3(C)COC(C)(C)O3)cs2)cc1`, for which the IC50 is 50 nM. On to `C/C(=N\OCC#N)c1ccc(Sc2ncc([C@@]3(C)COC(C)(C)O3)s2)cc1`, for which the IC50 was determined as 30 nM. For the compound `C/C(=N\O)c1ccc(Sc2cc(C3(C)COC(C)(C)O3)cs2)cc1` (stereo unspecified), the midpoint of inhibition, the IC50, lay at 40 nM. Next, `C/C(=N\O)c1ccc(Sc2cc([C@@]3(C)COC(C)(C)O3)cs2)cc1`: 40 nM; `COC1(c2sc(Sc3ccc4c(c3)CCC(=O)N4C)nc2C)CCOCC1`: 140 nM; `COC1(c2cc(Sc3ccc4c(c3)OCC(=O)N4C)cc(F)c2C)CCOCC1`: 40 nM.

Turning to `CN(c1ccc(Sc2cc(C3(C)COC(C)(C)O3)cs2)cc1)S(C)(=O)=O` (stereo unspecified), the IC50 worked out at 160 nM. Take `COC1(c2cc(OCc3ccc4c(ccc(=O)n4C)c3)cc(F)c2C)CCOCC1`: the IC50 was determined as 20 nM. `C/C(=N\O)c1ccc(S(=O)(=O)c2cc([C@@]3(C)COC(C)(C)O3)cs2)cc1` displayed an IC50 of 90 nM. In the case of `CC1(C)OCC(C)(c2cccc(OCc3ccc4ccccc4c3)c2)O1` (stereo unspecified), the IC50 is 350 nM. In the case of `CN1C(=O)COc2ccc(Sc3cc(C4(C)COC(C)(C)O4)cs3)cc21` (stereo unspecified), the concentration for half-maximal inhibition (IC50) stood at 40 nM. `C/C(=N\O)c1ccc(S(=O)(=O)c2ncc([C@@]3(C)COC(C)(C)O3)s2)cc1` registered an IC50 of 200 nM. In turn, `COC1(c2cc(Sc3ccc(/C(C)=N/O)cc3)cc(F)c2C)CCOCC1` showed an IC50 of 20 nM.

For `C/C(=N\OCC#N)c1ccc(S(=O)(=O)c2ncc([C@@]3(C)COC(C)(C)O3)s2)cc1`, the IC50 is 120 nM.

As to `C/C(=N\OCC#N)c1ccc(Sc2cc([C@@]3(C)COC(C)(C)O3)cs2)cc1`, the IC50 is 10 nM.

Compound `CN(C)S(=O)(=O)c1ccc(Sc2cc(C3(C)COC(C)(C)O3)cs2)cc1` (stereo unspecified) came in with an IC50 of 210 nM.

Regarding `CN1C(=O)CCc2ccc(Sc3cc(C4(C)COC(C)(C)O4)cs3)cc21` (stereo unspecified), half-maximal inhibition (IC50) was put at 100 nM. In turn, `COC1(c2cc(S(=O)(=O)c3ccc4c(ccc(=O)n4C)c3)ccc2C)CCOCC1` had an IC50 of 40 nM.

`CC(=O)N(C)c1ccc(S(=O)(=O)c2cc(C3(C)COC(C)(C)O3)cs2)cc1` (stereo unspecified): the midpoint of inhibition, the IC50, lay at 840 nM. The compound `COC1(c2cc(Sc3ccc4c(c3)CCC(=O)N4C)sc2C)CCOCC1` returned an IC50 of 20 nM.
